Reference: US20160046592A1, “PHARMACEUTICAL COMPOSITION FOR THE TREATMENT OF DIABETES” (Ajinomoto Co., Inc., priority 2013, published 2016)
Structures can show the parent of a compound that is named as a salt.

How the values were obtained:
[1] = target: T1, PPAR-α (Homo sapiens, UniProt Q07869); assay: Measurement of PPAR-α activity (GAL4 luciferase reporter assay in CV-1 cells); format: cell-based; conditions: 100(A/B): A = maximum PPAR-α activity of test compound at 3, 10, 30 and 100 μM, B = activity of the compound of WO/2011/058154 at 100 μM, 18 to 20 hours, read-out: Relative fold induction (%) of PPAR α
T1 construct: expressed in transfected cells; host or cells: CV-1 (African green monkey kidney)
T1 sequence (Q07869 167-468): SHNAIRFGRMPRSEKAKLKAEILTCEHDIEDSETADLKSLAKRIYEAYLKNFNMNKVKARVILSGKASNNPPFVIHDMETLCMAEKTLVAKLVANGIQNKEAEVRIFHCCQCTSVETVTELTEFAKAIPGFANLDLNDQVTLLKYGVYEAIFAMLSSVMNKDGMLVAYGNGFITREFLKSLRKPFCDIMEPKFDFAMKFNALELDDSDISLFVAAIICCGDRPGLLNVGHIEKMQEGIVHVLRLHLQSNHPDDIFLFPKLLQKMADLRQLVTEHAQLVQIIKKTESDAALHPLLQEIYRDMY
Summary of the method: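 CV-1 cells were co-transfected with a UAS×5-TK-Luc reporter and a hGR-GAL4-hPPARα (LBD 167-468aa) expression plasmid, then dosed with compound for 18 to 20 h at 37 °C, with Bright-Glo luciferase read-out. Relative fold induction (%) is the maximum activity at 3, 10, 30 or 100 μM divided by the activity of a WO/2011/058154 reference compound at 100 μM.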

[2] = test system: Rat skeletal muscle-derived L6 myoblasts (differentiated into myotube cells); assay: Evaluation of glycogen accumulation in L6; format: cell-based; conditions: [14C] glycogen from D-[U-C14] glucose, 3 hours incubation, 100% = compound of Example 1 of WO/2011/058154 at 30 μM
Protocol: The glycogen accumulation activity was evaluated in skeletal muscle cells according to the published article (ANALYTICAL BIOCHEMISTRY, Vol. 261: 159-163, 1998) by the following method. Rat skeletal muscle-derived L6 myoblasts (ATCC) were seeded in a 96-well collagen-coated plate (IWAKI, 4860-010) by using a growth medium (10% FBS-containing α-MEM medium (NACALAI TESQUE, INC., 21444-05)) under a condition of 4×10^4 cells/100 μL/well. After culturing under conditions of 37° C. and 5% CO2 overnight, the medium was replaced with a differentiation medium (2% FBS-containing α-MEM medium), followed by culturing for 3 days to differentiate the myoblasts into myotube cells. On the day of evaluation, the medium was replaced with a glucose-deprived medium (0.1% BSA-containing DMEM medium (Gibco, 11966)). After culturing for 4 hours, the medium was replaced with assay media (0.1% BSA-containing DMEM medium (NACALAI TESQUE, INC., 08456-65)) containing 0.6% DMSO and one of the test compounds at a concentration which was twice the final evaluation concentration at 15 μL/well. Further, an assay medium containing D-[U—C14] glucose (PerkinElmer Inc., NEC042V) at […] was added at 15 μL/well to adjust the final volume to 30 μL/well. Then, the cells were incubated under conditions of 37° C. and 5% CO2 for 3 hours. After the incubation, each medium was removed by suction with an aspirator, and the wells were rinsed with PBS at 200 μL/well twice. Then, 1 N NaOH was added at 50 μL/well, and the cells were lysed by incubation at 60° C. for 10 minutes. After the temperature of the lysed cells was returned to room temperature, each whole cell lysate and […] glycogen (Sigma-Aldrich, G8876) at 5 μL/well were added to a Multiscreen HTS (Millipore, MSFCN6B) to which 100% ethanol was added in advance at 100 μL/well, followed by incubation at 4° C. for 20 minutes. After the incubation, aspiration was conducted by using Multiscreen HTS Vacuum Manifold (Millipore), followed by rinse with 66% ethanol at 200 μL/well twice. After ethanol remaining on the filter was completely removed by drying, MicroScint40 (PerkinElmer Inc.) was added at 50 μL/well, the amount of [14C] glycogen was measured with TopCountNXT (PerkinElmer Inc.). The activity of each test compound was calculated by the following method. Specifically, the relative activity (%) was calculated as 100×(B−A)/(C−A), where A represents a value (cpm) measured for a well not containing the compound but containing only DMSO, B represents a value measured for a well containing the compound and DMSO, and C represents a value measured for a well containing the compound of Example 1 of WO/2011/058154 at a final concentration of 30 μM. EC50 representing the concentration of the compound at which an increase in activity by 50% was caused was calculated using XLfit (idbs).

Compound	Emax [1]	EC50 [2]
COC[C@@H]1CC[C@@H](C(=O)O)N1C(=O)c1cccc(COc2ccc(-c3cc(F)c(F)cc3SC)cc2)c1 [Example 62, (2S,5S)-1-[3-[[4-(4,5-Difluoro-2-methylsulfanyl-phenyl)phenoxy]methyl]benzoyl]-5-(methoxymethyl)pyrrolidine-2-carboxylic Acid]	14%	< 300 nM
CSc1cc(F)c(F)cc1-c1ccc(OCc2cccc(C(=O)N3C[C@H](N(C)C)C[C@H]3C(=O)O)c2)cc1 [Example 63, (2S,4R)-1-[3-[[4-(4,5-Difluoro-2-methylsulfanyl-phenyl)phenoxy]methyl]benzoyl]-4-(dimethylamino)pyrrolidine-2-carboxylic Acid Trifluoroacetate]	13%	
